Assay results: paper PMC4316997, “Complex Structure and Biochemical Characterization of the Staphylococcus aureus Cyclic Diadenylate Monophosphate (c-di-AMP)-binding Protein PstA, the Founding Member of a New Signal Transduction Protein Family” (The Journal of Biological Chemistry, 2014)

What was measured:
[1] = molecular target: T1, PstA (PstASA, His-PstASA) (Staphylococcus aureus, UniProt A0A0H2XH20, N41A); experiment: biochemical
T1 construct: gene SAUSA300_0460

[2] = molecular target: T2, PstA (PstASA, His-PstASA) (Staphylococcus aureus, UniProt A0A0H2XH20, K2A); experiment: biochemical
T2 construct: gene SAUSA300_0460

[3] = molecular target: T3, PstA (PstASA, His-PstASA) (Staphylococcus aureus, UniProt A0A0H2XH20, R67A); experiment: biochemical
T3 construct: gene SAUSA300_0460

[4] = molecular target: T4, PstA (PstASA, His-PstASA) (Staphylococcus aureus, UniProt A0A0H2XH20, D12A); experiment: biochemical
T4 construct: gene SAUSA300_0460

[5] = molecular target: T5, PstA (PstASA, His-PstASA) (Staphylococcus aureus, UniProt A0A0H2XH20, T43A); experiment: biochemical
T5 construct: gene SAUSA300_0460

[6] = molecular target: T6, PstA (PstASA, His-PstASA) (Staphylococcus aureus, UniProt A0A0H2XH20); experiment: DRaCALA, purified protein, […]-labelled ligand on nitrocellulose; assay type: binding
T6 construct: gene SAUSA300_0460; sites at monomer-monomer interfaces

[7] = molecular target: N-terminally His-tagged PstA protein from S. aureus (His-PstASA) (S. aureus); experiment: SEC-MALS; 100 uM purified His-PstASA in 50 mM Tris-HCl pH 7.5, 200 mM NaCl, 5% glycerol; Superdex 10/300 column coupled to a multiangle laser light scattering detector

| stoichiometry N [7] | Molecule | Kd [1] | Kd [2] | Kd [3] | Kd [4] | Kd [5] | Kd [6] |
| --- | --- | --- | --- | --- | --- | --- | --- |
| – | Nc1ncnc2c1ncn2[C@@H]1O[C@@H]2COP(=O)(O)O[C@H]3[C@@H](O)[C@H](n4cnc5c(N)ncnc54)O[C@@H]3COP(=O)(O)O[C@H]2[C@H]1O [c-di-AMP] | 9600 ± 2300 nM | 340 ± 40 nM | 480 ± 40 nM | 320 ± 50 nM | 1800 ± 200 nM | 370 ± 30 nM |
| 3 | N-terminally His-tagged PstA protein from S. aureus (His-PstASA) (natural protein) | – | – | – | – | – | – |
